Experimental data published in patent publication US20080207694A1, “Hydroxamates as Histone Deacetylase Inhibitors and Pharmaceutical Formulations Containing Them” (priority 2005, published 2008).

Assays:
[1] = tested on: Human colon carcinoma cells HCT-116; assay: Cytotoxic activity on culture of human colon carcinoma cells HCT-116 (Alamar Blue); assay type: cell-based; details: HCT-116 cells, 72 hours after addition of compounds, Alamar Blue viability
Protocol: (§1) The activity of the compounds as histone deacetylase (HDAC) inhibitors was measured using an in vitro acetylation assay. The compounds were then evaluated as inhibitors of proliferation of human tumor cell cultures.
24 hours after seeding, the compounds at different concentrations are added. […] 72 hours after addition of the compounds, cell viability is measured by means of the dye Alamar Blue.

[2] = tested on: histone deacetylase (HDAC), nuclear extract of Hela cells; assay: Deacetylase activity on nuclear extract of HeLa cells (Fluor de Lys kit); assay type: biochemical, human; details: percent inhibition relative to control without inhibitor, compound at 0.1 μM
Protocol: as §1
Deacetylase Activity on Nuclear Extract of Hela Cells (Human Cervical Cancer Cell)
The assay (Fluor de Lys™ kit, BioMol) is divided into two steps: in the first step the substrate which comprises an acetylated lysine residue is reacted with the nuclear extract (HeLa) containing the enzymatic activity in the presence and absence of inhibitors. In the second step a fluorogenic reagent is added which highlights the deacetylated residues. A reduction in fluorescence is obtained where there has been inhibition of the deacetylase activity. The result is finally expressed as percent inhibition relative to the control without inhibitor at a concentration of 0.1 μM.

SMILES: O=C(CCCC1CCN(C(=O)[C@H](CCO)NC(=O)c2cc3ccccc3s2)CC1)NO [Ex 113, Benzo[b]thiophene-2-carboxylic acid{3-hydroxy-1-(S)-[4-(3-hydroxycarbamoyl-propyl)-piperidine-1-carbonyl]-propyl}-amide]
- IC50 [1]: 270 nM
- % inhib. 0.1 μM [2]: 61%

SMILES: CCCOc1ccc(NC(=O)N2CCC(CCCC(=O)NO)CC2)cc1 [Ex 137, 4-(3-Hydroxycarbamoyl-propyl)-piperidine-1-carboxylic acid (4-propoxy-phenyl)-amide]
- IC50 ([1]; Homo sapiens, HCT-116, 72 h): 150 nM
- % inhib. 0.1 μM [2]: 68%

SMILES: Cc1ccc(NC(=O)N2CCC(CCCC(=O)NO)CC2)c(N)c1 [Ex 126, 4-(3-Hydroxycarbamoyl-propyl)-piperidine-1-carboxylic acid (2-amino-4-methyl-phenyl)-amide]
- IC50 ([1]; Homo sapiens, HCT-116, 72 h): 400 nM
- % inhib. 0.1 μM [2]: 63%

SMILES: O=C(CCCC1CCN(C(=O)NCc2cccc(Cl)c2)CC1)NO [Ex 39, 4-(3-Hydroxycarbamoyl-propyl)-piperidine-1-carboxylic acid 3-chloro-benzylamide]
- IC50 ([1]; Homo sapiens, HCT-116, 72 h): 810 nM
- % inhib. 0.1 μM [2]: 60%

SMILES: Nc1ccc2cc(NC(=O)N3CCC(CCCC(=O)NO)CC3)ccc2c1 [Ex 181, N-(6-aminonaphthalen-2-yl)-4-(4-(hydroxyamino)-4-oxobutyl)piperidine-1-carboxamide]
- IC50 ([1]; Homo sapiens, HCT-116, 72 h): 470 nM
- % inhib. 0.1 μM [2]: 64%

SMILES: Cc1ccc2ccccc2c1C(=O)N1CCC(CCCC(=O)NO)CC1 [Ex 15, N-Hydroxy-4-[1-(2-methyl-naphthalene-1-carbonyl)-piperidin-4-yl]-butyramide]
- IC50 ([1]; Homo sapiens, HCT-116, 72 h): 840 nM
- % inhib. 0.1 μM [2]: 43%

SMILES: CC(C)Oc1ccc(NC(=O)N2CCC(CCCC(=O)NO)CC2)cc1 [Ex 139, 4-(3-Hydroxycarbamoyl-propyl)-piperidine-1-carboxylic acid (4-isopropoxy-phenyl)-amide]
- IC50 ([1]; Homo sapiens, HCT-116, 72 h): 400 nM
- % inhib. 0.1 μM [2]: 56%

SMILES: COc1c(NC(=O)N2CCC(CCCC(=O)NO)CC2)ccc2ccccc12 [Ex 160]
- IC50 [1]: 200 nM
- % inhib. 0.1 μM [2]: 67%

SMILES: CN(C)[C@@H](CCc1ccccc1)C(=O)N1CCC(CCCC(=O)NO)CC1 [Ex 103, 4-[1-(2-(S)-Dimethylamino-4-phenyl-butyryl)-piperidin-4-yl]-N-hydroxy-butyramide]
- IC50 ([1]; Homo sapiens, HCT-116, 72 h): 200 nM
- % inhib. 0.1 μM [2]: 49%

SMILES: O=C(CCCC1CCN(C(=O)Nc2ccccc2)CC1)NO [Ex 8, 4-(3-Hydroxycarbamoyl-propyl)-piperidine-1-carboxylic acid phenylamide]
- IC50 ([1]; Homo sapiens, HCT-116, 72 h): 700 nM
- % inhib. 0.1 μM [2]: 53%

SMILES: NC[C@@H](NC(=O)c1cc2ccccc2s1)C(=O)N1CCC(CCCC(=O)NO)CC1 [Ex 115, 2-oxo-ethyl}-amideBenzo[b]thiophene-2-carboxylic acid{1-(R)-aminomethyl-2-[4-(3-hydroxycarbamoyl-propyl)-piperidin-1-yl]-]
- IC50 [1]: 900 nM
- % inhib. 0.1 μM [2]: 62%

SMILES: O=C(CCCC1CCCN(C(=O)Nc2ccccc2)C1)NO (centres unmarked) [Ex 192, 3-(4-(hydroxyamino)-4-oxobutyl)-N-phenylpiperidine-1-carboxamide]
- IC50 ([1]; Homo sapiens, HCT-116, 72 h): 600 nM
- % inhib. 0.1 μM [2]: 68%

SMILES: O=C(CCCC1CCN(C(=O)[C@H](CO)NC(=O)c2nccc3ccccc23)CC1)NO [Ex 122, Isoquinoline-1-carboxylic acid {2-[4-(3-hydroxycarbamoyl-propyl)-piperidin-1-yl]-1-(S)-hydroxymethyl-2-oxo-ethyl}-amide]
- IC50 ([1]; Homo sapiens, HCT-116, 72 h): 420 nM
- % inhib. 0.1 μM [2]: 42%

SMILES: N[C@@H](CC(=O)N1CCC(CCCC(=O)NO)CC1)c1ccc2ccccc2c1 [Ex 109, 4-[1-(3-(S)-Amino-3-naphthalen-2-yl-propionyl)-piperidin-4-yl]-N-hydroxy-butyramide]
- IC50 ([1]; Homo sapiens, HCT-116, 72 h): 68 nM
- % inhib. 0.1 μM [2]: 71%

SMILES: N[C@@H](CC(=O)N1CCC(CCCC(=O)NO)CC1)C(=O)NCc1ccccc1 [Ex 193, 2-(s)-Amino-N-benzyl-4-[4-(3-hydroxycarbamoyl-propyl)-piperidin-1-yl]-4-oxo-butyramide]
- IC50 ([1]; Homo sapiens, HCT-116, 72 h): 900 nM
- % inhib. 0.1 μM [2]: 50%

SMILES: O=C(CCCC1CCN(C(=O)Nc2ccc(-c3cccc(F)c3)cc2)CC1)NO [Ex 165, 4-(3-Hydroxycarbamoyl-propyl)-piperidine-1-carboxylic acid (3′-fluoro-biphenyl-4-yl)-amide]
- IC50 ([1]; Homo sapiens, HCT-116, 72 h): 700 nM
- % inhib. 0.1 μM [2]: 64%

SMILES: N[C@H](CC(=O)N1CCC(CCCC(=O)NO)CC1)Cc1cccc2ccccc12 [Ex 154, 4-[1-(3-(S)-Amino-4-naphthalen-1-yl-butyryl)-piperidin-4-yl]-N-hydroxy-butyramide]
- IC50 ([1]; Homo sapiens, HCT-116, 72 h): 530 nM
- % inhib. 0.1 μM [2]: 82%

SMILES: COc1cc2ccccc2cc1NC(=O)N1CCC(CCCC(=O)NO)CC1 [Ex 161]
- IC50 [1]: 30 nM
- % inhib. 0.1 μM [2]: 76%

SMILES: N[C@@H](CC(=O)N1CCC(CCCC(=O)NO)CC1)c1cccc(Cl)c1 [Ex 171, 4-{1-[3-(S)-Amino-3-(3-chloro-phenyl)-propionyl]-piperidin-4-yl}-N-hydroxy-butyramide]
- IC50 [1]: 400 nM
- % inhib. 0.1 μM [2]: 45%

SMILES: O=C(CCCC1CCN(C(=O)NCc2ccc(Cl)cc2)CC1)NO [Ex 34, 4-(3-Hydroxycarbamoyl-propyl)-piperidine-1-carboxylic acid 4-chloro-benzylamide]
- IC50 ([1]; Homo sapiens, HCT-116, 72 h): 330 nM
- % inhib. 0.1 μM [2]: 64%

SMILES: Cc1ccc(CNC(=O)N2CCC(CCCC(=O)NO)CC2)cc1 [Ex 52, 4-(3-Hydroxycarbamoyl-propyl)-piperidine-1-carboxylic acid 4-methyl-benzylamide]
- IC50 ([1]; Homo sapiens, HCT-116, 72 h): 500 nM
- % inhib. 0.1 μM [2]: 68%

SMILES: Cc1cc(C)n(-c2ccc(NC(=O)N3CCC(CCCC(=O)NO)CC3)cc2)n1 [Ex 179, 4-(3-Hydroxycarbamoyl-propyl)-piperidine-1-carboxylic acid [4-(3,5-dimethyl-pyrazol-1-yl)-phenyl]-amide]
- IC50 ([1]; Homo sapiens, HCT-116, 72 h): 500 nM
- % inhib. 0.1 μM [2]: 70%

SMILES: O=C(CCCC1CCN(C(=O)Nc2ccc3ccccc3c2)CC1)NO [Ex 36, 4-(3-Hydroxycarbamoyl-propyl)-piperidine-1-carboxylic acid 2-naphthylamide]
- IC50 ([1]; Homo sapiens, HCT-116, 72 h): 830 nM
- % inhib. 0.1 μM [2]: 73%

SMILES: Nc1ccccc1NC(=O)N1CCC(CCCC(=O)NO)CC1 [Ex 73, 4-(3-Hydroxycarbamoyl-propyl)-piperidine-1-carboxylic acid (2-amino-phenyl)-amide]
- IC50 ([1]; Homo sapiens, HCT-116, 72 h): 840 nM
- % inhib. 0.1 μM [2]: 73%

SMILES: N[C@H](Cc1cccc2ccccc12)C(=O)N1CCC(CCCC(=O)NO)CC1 [Ex 93, 4-[1-(2-(R)-Amino-3-naphthalen-1-yl-propionyl)-piperidin-4-yl]-N-hydroxy-butyramide]
- IC50 ([1]; Homo sapiens, HCT-116, 72 h): 500 nM
- % inhib. 0.1 μM [2]: 64%

SMILES: N[C@@H](CC(=O)N1CCC(CCCC(=O)NO)CC1)c1cccc2ccccc12 [Ex 158, 4-[1-(3-(S)-Amino-3-naphthalen-1-yl-propionyl)-piperidin-4-yl]-N-hydroxy-butyramide]
- IC50 ([1]; Homo sapiens, HCT-116, 72 h): 900 nM
- % inhib. 0.1 μM [2]: 60%

SMILES: N[C@@H](CC(=O)N1CCC(CCCC(=O)NO)CC1)c1cccc(Cl)c1 [Ex 168, 4-{1-[3-(S)-Amino-3-(3-chloro-phenyl)-propionyl]-piperidin-4-yl}-N-hydroxy-butyramide]
- IC50 [1]: 90 nM
- % inhib. 0.1 μM [2]: 55%

SMILES: O=C(CCCC1CCN(C(=O)[C@@H](CO)NC(=O)c2cc3ccccc3s2)CC1)NO [Ex 102, Benzo[b]thiophene-2-carboxylic acid {2-[4-(3-hydroxycarbamoyl-propyl)-piperidin-1-yl]-1-(R)-hydroxymethyl-2-oxo-ethyl}-amide]
- IC50 ([1]; Homo sapiens, HCT-116, 72 h): 790 nM
- % inhib. 0.1 μM [2]: 54%
